This note sets out measurements from ChEMBL document CHEMBL1177877, “Synthesis and in vitro evaluation of substituted pyrimido[5,4-d]pyrimidines as a novel class of anti-Mycobacterium tuberculosis agents” (Eur J Med Chem, 2010).

The term IC50 denotes the concentration that gives 50% inhibition. The term IC90 denotes the concentration needed for an effect of 90%. One may read the EC50 as the midpoint of the concentration-response curve.

Test [1] in a line: Selectivity index, EC50 for against african green monkey Vero cells to IC50 for Mycobacterium tuberculosis H37Rv. It counts as functional.
The subject of test [2] is Mycobacterium tuberculosis. In words: Antimycobacterial activity against Mycobacterium tuberculosis H37Rv. The test is classed as functional, organism-based.
The test system of a further test is Vero. Description: Cytotoxicity against african green monkey Vero cells. It counts as cell-based. To be noted: Chlorocebus sabaeus.

≈ marks a conversion by molar mass, not a printed value.

Turning to `N=c1c2ncnc(Nc3ccccc3)c2ncn1NC(=O)c1ccncc1`, the Ratio in test [1] turned out to be 0.57. In test [2], the IC50 was 4.3 µg/mL (≈ 12 µM) and the IC90 was 21 µM. In the test on Vero, this compound had an EC50 of 4.37 µg/mL (≈ 12.2 µM).

With `N=c1c2ncnc(Nc3ccc(F)cc3)c2ncn1NC(=O)c1ccccc1`, in test [1], the Ratio amounted to 0.6. In test [2], this compound came in with a 50% inhibitory concentration (IC50) of 2.92 µg/mL (≈ 7.78 µM) and an IC90 of 13.5 µM. Besides, in the test with Vero, the EC50 amounted to 3.05 µg/mL (≈ 8.13 µM).

Turning to `CC(=O)Nn1cnc2c(Nc3ccc(C#N)cc3)ncnc2c1=N`, in test [2], the IC50 turned out to be 42.1 µg/mL (≈ 131 µM) and the IC90 is greater than 311 µM.

Turning to `CC(=O)Nn1cnc2c(Nc3ccc(F)cc3)ncnc2c1=N`, in test [2], half-maximal inhibition (IC50) required 18.7 µg/mL (≈ 59.7 µM) and the IC90 was 91.4 µM.

On to `N=c1c2ncnc(Nc3ccccc3)c2ncn1NC(=O)c1ccccc1`, for which the Ratio in test [1] turned out to be 0.38. In addition, in test [2], the IC50 stood at 3.65 µg/mL (≈ 10.2 µM) and the IC90 is 17.4 µM. This compound also had an EC50 in the test on Vero of 2.35 µg/mL (≈ 6.58 µM).

In test [2], `N=c1c2ncnc(Nc3ccc(F)cc3)c2ncn1NC(=O)c1ccco1` displayed an IC50 of 2.17 µg/mL (≈ 5.94 µM) and an IC90 of 9.77 µM.

Take `COc1ccc(Nc2ncnc3c(=N)n(NC(=O)c4ccccc4)cnc23)cc1`: the Ratio in test [1] is recorded as 0.23. In test [2], this compound registered an IC50 of 4.11 µg/mL (≈ 10.6 µM) and an IC90 of 23.4 µM. A half-maximal response in the test with Vero (EC50) required 2.12 µg/mL (≈ 5.47 µM).

Turning to `COc1ccc(Nc2ncnc3c(=N)n(NC(=O)c4ccncc4)cnc23)cc1`, the Ratio in test [1] is reported as 0.27. Further, in test [2], inhibition was half-maximal at 1.59 µg/mL (≈ 4.09 µM) (IC50) and the IC90 is 9.49 µM. Moreover, in the test on Vero, the EC50 came out at 1.15 µg/mL (≈ 2.96 µM).

`N#Cc1ccc(Nc2ncnc3c(=N)n(NC(=O)c4ccccc4)cnc23)cc1`: in test [2], the half-maximal inhibitory concentration (IC50) came to 2.47 µg/mL (≈ 6.46 µM) and it took 36.1 µM to reach the 90% level (IC90).

On to `N=c1c2ncnc(Nc3ccc(F)cc3)c2ncn1NC(=O)c1ccncc1`, for which the Ratio in test [1] amounted to 0.43. Further, in test [2], it took 0.91 µg/mL (≈ 2.42 µM) to reach half-maximal inhibition (IC50) and the IC90 amounted to 9.12 µM. Besides, the EC50 in the test on Vero was 1.53 µg/mL (≈ 4.07 µM).

In test [2], `N=c1c2ncnc(Nc3ccccc3)c2ncn1NC(=O)c1ccco1` came in with an IC50 of 3.16 µg/mL (≈ 9.1 µM) and an IC90 of 14 µM.

`COc1ccc(Nc2ncnc3c(=N)n(NC(C)=O)cnc23)cc1`: in test [2], the midpoint of inhibition, the IC50, lay at 46.5 µg/mL (≈ 143 µM) and the IC90 was greater than 298 µM.

In test [2], `COc1ccc(Nc2ncnc3c(=N)n(NC(=O)c4ccco4)cnc23)cc1` returned an IC50 of 3.56 µg/mL (≈ 9.43 µM) and an IC90 of 261 µM.

In test [2], `CC(=O)Nn1cnc2c(Nc3ccccc3)ncnc2c1=N` came in with an IC50 of 44.9 µg/mL (≈ 152 µM) and an IC90 greater than 314 µM.

With `N#Cc1ccc(Nc2ncnc3c(=N)n(NC(=O)c4ccncc4)cnc23)cc1`, in test [2], the IC50 was 17.2 µg/mL (≈ 44.9 µM) and the IC90 was greater than 240 µM.
